Laboratory results published in patent US20070219180A1, “Muscle Relaxtion Accelerator and Therapeutic Agent for Muscular Tissue Diseases Such as Muscle Relaxation Failure” (priority 2004, published 2007).
Several values for one entry are separate records, joined by “and”; a condition that tells them apart may be missing. Equal entries are not always repeated.

Assays:
[1] = target: T1, troponin I and the actin-tropomyosin complex (Homo sapiens, UniProt P19429); test: Experiments 6 and 7: affinity of troponin I and the actin-tropomyosin complex (co-precipitation at defined Ca concentration); format: binding
T1 construct: human myocardium-derived troponin I with a molecular weight of 24 kDa; purchased Calbiochem Inc (troponin I); Abcam PLC (troponin C); SIGMA (actin, tropomyosin); host or cells: troponin I from human myocardium
Protocol: A solution of 0.4 μg of troponin I (Calbiochem Inc) and 0.54 μg of troponin C (Abcam PLC) was added to 23 μl of distilled water, distributed to 4 test tubes, and centrifuged at 100,000 g for 1 hour (HITACHI Himac 120FC), and 20 μl of the resulting supernatant was collected and stored at 4° C. Then, 50 μl of 600 mM KCl solution, 50 μl of 200 mM MOPS (3-morpholinopropanesulfonic acid) [3-N (morpholino) propanesulfonic acid] (DOJINDO) solution, 50 μl of 20 mM MgCl2 solution, 5 μl of 10 mg/ml pepstatin A (SIGMA) solution, and 50 μl of 150 mM 2-mercaptoethanol (SIGMA) were added as a reaction solution to 99.4 μl of distilled water, and distributed to another 4 test tubes. Next, 3.2 μl of 1 mg/ml actin (SIGMA) and 2.4 μl of 1 mg/ml tropomyosin (SIGMA) were added and mixed, and the mixture was then centrifuged at 2000 g for 5 minutes at 25° C. using a centrifuge (HITACHI Himac CF7D2). The resulting supernatant was put into 4 new test tubes, 50 μl of 50 mM ATP (adenosine 5′-triphosphate) solution was added, and the solution was incubated at 25° C. with mixing for 30 minutes.
Next, 20 μl of the 100,000 g supernatant of troponin I and troponin C which was previously prepared was added to each test tube, and incubated at 25° C. with mixing for 30 minutes. Distilled water alone or 50 μl of a test solution in which the final concentration of the compound was adjusted to 10^−7, 10^−6 and 10^−5 M was added, and the resulting solution was incubated at 25° C. with mixing for 30 minutes.
[…] The solution was incubated at 25° C. with intermittent mixing for 60 minutes, and then centrifuged at 100,000 g for 120 minutes at 25° C. using a centrifuge (HITACHI Himac 120FC: brand name).
After centrifugation, the supernatant was removed, 1 ml of the reaction liquid (excluding Ca^2+ and the drug) was gently added so as not to suspend any precipitate, and the precipitate was again removed by suction; the procedure was repeated twice and the precipitate washed 3 times in total.
The washing solution was removed completely, 20 μl of a sample buffer for polyacrylamide gel electrophoresis (SDS-PAGE) was added and mixed well, the precipitate was suspended and heated for 5 minutes at 95° C., and then poured into a PAG MINI “No. 1” 10/20 gel (Daiichi Pure Chemicals Co., Ltd) and electrophoresized for about 1 hour at 40 mA. After electrophoresis, the suspension was silver-stained using “Daiichi” 2D-silver staining reagent (Daiichi Pure Chemicals Co., Ltd), and washed and dried. Finally, the suspension was scanned (EPSON ES-8500 scanner: brand name) and analyzed (Image J software: brand name).
In this experiment, at a calcium concentration in the test tube of 10^−6 M, the amount of troponin I precipitated in the absence of the compound was set at 1.0. Relatively, the amount of co-precipitation in the presence of 10^−7, 10^−6 and 10^−5 M concentrations of the compound was 1.4, 3.4, and 5.4, respectively; therefore, it was confirmed that the amount of troponin I precipitate increased with an increase in the compound concentration. The actin used in this experiment was swine skeletal muscle-derived actin with a molecular weight of 43 kDa, and was purchased from SIGMA. Tropomyosin used in this experiment was gizzard-derived tropomyosin with a molecular weight of 36 kDa, and was purchased from SIGMA. Troponin I used in this experiment was human myocardium-derived troponin I with a molecular weight of 24 kDa, and was purchased from Calbiochem Inc. Troponin C used in this experiment was human myocardium recombinant-derived troponin C with a molecular weight of 18 kDa, and was purchased from Abcam PLC. These proteins were separated by SDS-polyacrylamide gel electrophoresis and each band was clearly identifiable. […]

white rabbits = test: Experiment 9: effect of the compound on blood pressure in rabbits; format: in vivo, rabbit; settings: for Mean blood pressure relative to before administration (100%): before administration (defined as 100%)
Protocol: Effects of the compound on blood pressure were examined in the same way as described in Experiment 2. In this experiment, Control and Tests 6-9 were anesthetized with a single intravenous injection of 20 mg/kg methohexital sodium under artificial respiration (Type AR1Narishige Group) using endotracheal intubation. The 1,4-benzothiazepine derivative or pharmaceutically acceptable salt thereof was used as the compound in this experiment.
Five white rabbits (weight: 2.7-2.9 kg) were used in this experiment: a rabbit (weight: 2.8 kg, Control) that received control solution, a rabbit (weight: 2.7 kg, Test 6) that received the compound at 0.04 mg/kg/min, a rabbit (weight: 2.7 kg, Test 7) that received the compound at 0.04 mg/kg/min, a rabbit (weight: 2.9 kg, Test 8) that received the compound at 0.4 mg/kg/min, and a rabbit (weight: 2.8 kg, Test 9) that received the compound at 0.4 mg/kg/min.
Each rabbit was anesthetized with a single intravenous injection of 20 mg/kg methohexital sodium under artificial respiration (Type AR1 Narishige Group) using endotracheal intubation. Subsequently, α-chloralose was injected into the ear veins at 90 mg/kg/20 min. A DMSO solution of the compound was prepared by dissolving 100 mg of the compound in 1 ml of dimethylsulfoxide (DMSO), and stored at 4° C.
In this experiment, injection catheters for the compound for administration of drugs were inserted into the right external jugular veins of the rabbits and microchip catheters (SPC-320, Millar) for blood pressure measurement were inserted via the right common arteries. A 2-lead electrocardiogram was examined and blood pressure, cardiac rate, and electrocardiogram of the rabbits were monitored for 10 minutes. When the data stabilized, the electrocardiogram, systolic pressure and diastolic pressure of each rabbit were recorded on a personal computer via an A/D converter. The Control rabbit was administered 5% dextrose solution containing 0.1% DMSO as a control solution for 10 minutes at 0.1 ml/min. Test 6 and 7 rabbits were administered 5% dextrose containing the compound at 0.1 ml/min, and then the compound at an infusion rate of 0.04 mg/kg/min. Test 8 and 9 rabbits were administered 5% dextrose containing the compound at 0.1 ml/min, and then the compound at an infusion rate of 0.4 mg/kg/min.
Systolic pressure (mmHg) and diastolic pressure (mmHg) of the Control and Test rabbits were measured over 5 heart beats before administration of the solution, and 5 and 10 minutes after administration. The mean blood pressure (mmHg) was calculated from the systolic pressure (mmHg) and the diastolic pressure (mmHg), using the formula: mean blood pressure (mmHg)=[(systolic pressure+diastolic pressure)×½].

[2] = Ca 10^−6 M, the compound 10^−5 M

COc1ccc2c(c1)CN(C(=O)CCN1CCC(Cc3ccccc3)CC1)CCS2 [the compound, 4-[3-(4-benzylpiperidine-1-yl)propionyl]-7-methoxy-2,3,4,5-tetrahydro-1,4-benzothiazepine]
Amount of precipitate of troponin I, Ratio (Ca 10^−8 M = 1.0) ([1]; Ca 10^−5 M, the compound 10^−5 M): 0.78 | Amount of precipitate of troponin I, Ratio (Ca 10^−8 M = 1.0) [1, 2]: 0.81 | Amount of precipitate of troponin I, Ratio (no compound = 1.0) [1, 2]: 5.4 | Amount of precipitate of troponin I, Ratio (no compound = 1.0) ([1]; Ca 10^−6 M, the compound 10^−6 M): 3.4 | Amount of precipitate of troponin I, Ratio (no compound = 1.0) ([1]; Ca 10^−6 M, the compound 10^−7 M): 1.4 | Amount of precipitate of troponin I, Ratio (Ca 10^−8 M = 1.0) ([1]; Ca 10^−7 M, the compound 10^−5 M): 0.94 | Amount of precipitate of troponin I, Ratio (Ca 10^−8 M = 1.0) ([1]; Ca 10^−8 M, the compound 10^−5 M (reference set at 1.0)): 1.0 | Mean blood pressure (white rabbits; infusion rate 0.04 mg/kg/min, after 5 minutes): 79.5 mmHg and 82.0 mmHg | Mean blood pressure (white rabbits; infusion rate 0.04 mg/kg/min, after 10 minutes): 85.9 mmHg and 93.4 mmHg | Mean blood pressure (white rabbits; infusion rate 0.04 mg/kg/min, before administration): 85.6 mmHg and 87.7 mmHg | Mean blood pressure relative to before administration (100%) (white rabbits; infusion rate 0.04 mg/kg/min): (100%) | Mean blood pressure (white rabbits; infusion rate 0.4 mg/kg/min, after 5 minutes): 35.7 mmHg and 64.5 mmHg | Mean blood pressure (white rabbits; infusion rate 0.4 mg/kg/min, after 10 minutes): 41.7 mmHg and 46.3 mmHg | Mean blood pressure (white rabbits; infusion rate 0.4 mg/kg/min, before administration): 74.0 mmHg and 97.7 mmHg | Mean blood pressure relative to before administration (100%) (white rabbits; infusion rate 0.4 mg/kg/min): (100%)
